# Laboratory results taken from paper PMC5920042, “KH176 Safeguards Mitochondrial Diseased Cells from Redox Stress-Induced Cell Death by Interacting with the Thioredoxin System/Peroxiredoxin Enzyme Machinery” (Scientific Reports, 2018).
# pEC50, pIC50: −log10 of the molar value. “Also recorded” adds a separate entry of the source.
# What was measured:
# [1] = test system: P4 cell line; test: Radical-Scavenging Capacity assay (CM-H2DCFDA, H2O2 or KO2); assay type: cell-based, human; settings: P4 cells, 100 µM H2O2 or 1 mM KO2 (text: KOH), 3 µM compound
# Protocol: Cells were seeded at a density of 4 × 10^3 cells/well into 96-wells black plates. After 24 h the cells were loaded with 5 µM CM-H2DCFDA in M199 without phenol red for 20 min. The dye excess was washed with M199 without phenol red and immediately after, cells were treated acutely with different concentrations of the test compounds in M199 without phenol red. To generate radicals, 100 µM H2O2 or 1 mM KO2 were injected to the compound-treated cells and CM-DCF fluorescence was measured every 2 min for 70 cycles on a scanning microplate reader (BMG FLUOstar Omega; Ex. 480 nm, Em. 520 nm). The area under the generated curves was calculated using the Origin 6.1 software (OriginLab).
# [2] = test system: P4 cell line; test: Redox Stress Survival assay (BSO-induced cell death, Calcein AM viability); assay type: cell-based, human; settings: P4 cells
# Protocol: (§1) Cells were seeded at a density of 4 × 10^3 cells/well into 96-wells black plates and incubated for 24 h. To induce redox stress, semi-logarithmic dilutions of buthionine sulphoximine (BSO, #B2515, Sigma Aldrich) up to 100 µM were added to the cells in culture medium and incubated for 24 h. Cell viability was assessed by quantification of cellular conversion of Calcein AM into fluorescent Calcein. Briefly, after having discarded the BSO containing medium, cells were washed once with M199 without phenol red and loaded with 2 µM Calcein AM (#65-0853-39, Affimetrix eBioscience) in M199 without phenol red for 25 min. At the end of the incubation period, the excess of the dye was washed with M199 without phenol red and Calcein fluorescence was measured with a scanning microplate reader (BMG FLUOstar Omega; Ex. 480 nm, Em. 520 nm). For compound screening and target identification measurements cells were treated with 200 µM BSO alone or in co-incubation with semi-logarithmic dilutions of the test compound. Additionally, where indicated, increasing doses of Auranofin (AFN, #BML-EI206-0100, Enzo) or Aurothioglucose (ATG, #A0606, Sigma Aldrich) were co-incubated with BSO and the test compound. In all cases, cell viability was assessed 24 h after the treatment.
# [3] = test system: P4 cell line; test: Cellular ROS assay (DCFH-DA); assay type: cell-based, human
# Protocol: The cells were then treated for 72 h (or shorter as indicated) with culture medium containing semi-logarithmic dilutions of the test compound. Alternatively, 3 × 10^3 cells/well were seeded when cells were treated for 24 h only. At the end of the incubation period, cells were loaded with 40 µM DCFH-DA (#D6883, Sigma-Aldrich). in M199 without phenol red for 30 min. The excess of the dye was washed with ice-cold M199 without phenol red and the cells were lysed with 100 µl/well of ice-cold 0.2% Triton X-100 in M199 without phenol red after 10 min incubation in ice. Cellular debris was spun down by centrifugation at 2600 g, 5 min, +4 °C and 90 µl/well of cell lysate were transferred to a black 96-wells plate and DCF fluorescence was measured on a scanning microplate reader (BMG FLUOstar Omega; Ex. 480 nm, Em. 520 nm).
# [4] = test system: primary human skin fibroblasts; test: CumOOH induced lipid peroxidation (bodipy 581/591 C11); assay type: cell-based; settings: 30 µM cumOOH, bodipy 581/591 C11
# Protocol: The cells were seeded at a density of 3 × 10^3 cells/well into 96-wells black plates. After 24 h, the cells were coincubated with 500 nM bodipy 581/591 C11 (#D3861, Thermo Fisher) and different amounts of KH compound in M199 without phenol red. This medium was used in all subsequent washes and incubations. After 30 min. incubation the cells were washed twice and subsequently incubated with 30 μM cumene hydroperoxide (cumOOH). For background subtractions cells with the dye but without cumOOH were used. After 30 minutes incubation and two washes oxidized bodipy 581/591 C11 was quantified on an automated bioimager (BD Pathway 855), by using a 20x objective and Ex. 488/10 nm, Em. FURA/FITC. Total cellular fluorescence per well was normalized on the number of cellular pixels/well and normalized on the incubation with probe and cumOOH but without compound (vehicle set as 100%). Experiments were performed at least three times with 3 wells per experiment.
# [5] = test system: C1 control cell line; test: Redox Stress Survival assay (BSO sensitivity); assay type: cell-based, human; settings: C1, 24 h
# Protocol: as §1
# [6] = test system: P6 cell line (Complex I, NDUFS8); test: Redox Stress Survival assay (BSO sensitivity); assay type: cell-based, human; settings: P6, 24 h
# Protocol: as §1
# [7] = test system: C3 control cell line; test: Redox Stress Survival assay (BSO sensitivity); assay type: cell-based, human; settings: C3, 24 h
# Protocol: as §1
# [8] = test system: P2 cell line (Complex I, NDUFS2); test: Redox Stress Survival assay (BSO sensitivity); assay type: cell-based, human; settings: P2, 24 h
# Protocol: as §1
# [9] = test system: C2 control cell line; test: Redox Stress Survival assay (BSO sensitivity); assay type: cell-based, human; settings: C2, 24 h
# Protocol: as §1
compound,measurement,setting,value
COc1c(C)c(C)c2c(c1C)CC[C@@](C)(C(=O)N[C@@H]1CCCNC1)O2 [KH176i],Reduction of H2O2-induced radicals and O2.- (CM-H2DCFDA oxidation),[1],not
same,Rescue of cell viability from BSO-induced death,"[2]; 200 µM BSO, 24 h",unable to rescue cell viability
same,Activity in the ROS assay,"[3]; P4 cells, 24 h compound treatment",inactive
same,Effect on CumOOH induced lipid peroxidation,[4],no effect; also recorded: no activity
"auranofin [AFN, reference compound]",Effect of thioredoxin reductase inhibition on rescue by KH176(m),"[2]; 200 µM BSO, 100 nM AFN",decrease of the capacity of KH176(m) to rescue the cells
same,Effect of thioredoxin reductase inhibition on ROS reduction by KH176m,"[3]; 24 hours, 100 nM AFN with 1 µM KH176m, DCFH-DA",did not affect the capacity of KH176m to reduce the DCFH-DA signal
"CCCCS(=N)(=O)CCC(N)C(=O)O (centres unmarked) [BSO, Buthionine sulphoximine]",IC50 BSO,[5],n.s.
same,IC50 BSO,[6],n.s.
same,IC50 BSO,[7],n.s.
same,IC50 BSO,[8],n.s.
same,IC50 BSO,[9],n.s.
same,pIC50,[2]; 24 h BSO up to 100 µM,5.42
"Cc1c(C)c2c(c(C)c1O)CCC(C)(C(=O)O)O2 (centres unmarked) [Trolox, reference compound]",pEC50,"[2]; Homo sapiens, 200 µM BSO, 24 h",4.42
same,pIC50,"[3]; Homo sapiens, P4 cells, 72 h treatment",3.73
